# According to patent US8247211B2, “Glycopeptide antibiotics” (American Cyanamid Company, priority 2001, dated 2012):
# Assays:
# Streptococcus sp. = assay: In vitro antibacterial evaluation: minimum inhibitory concentration (MIC), broth dilution method; assay type: cell-based; conditions: broth dilution, 5×10^5 CFU/mL, 18 hours at 35° C.
# Summary of the method: (§1)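 Inoculum: 5×10^5 CFU/mL. Range: 64-0.06 μg/mL. Medium: Muller-Hinton II […]; NCCLS M7-A2 broth dilution. Endpoint: lowest concentration inhibiting growth. Strains include methicillin-, penicillin- and/or vancomycin-resistant clinical isolates.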
# Enterococcus sp. = assay: as above; assay type: cell-based; conditions: broth dilution, 5×10^5 CFU/mL, 18 hours at 35° C.
# Summary of the method: as §1
# Escherichia coli = assay: as above; assay type: cell-based; conditions: 5×10^5 CFU/mL, 18 hours at 35° C.
# Summary of the method: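 Values are minimum inhibitory concentrations, meaning the smallest antibiotic concentration that stops growth of the organism. They come from broth dilution in Muller-Hinton II […] per NCCLS guidance (M7-A2), using 5×10^5 CFU/mL and concentrations from 64 to 0.06 μg/mL.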
# Staphylococcus sp. = assay: as above; assay type: cell-based; conditions: for MIC Staphylococcus aureus-SMITH (GC 4543): strain GC 4543; for MIC Staphylococcus haemolyticus (GC 4546): strain GC 4546; for MIC Coagulase Negative Staphylococcus (GC 4547): strain GC 4547; for MIC Coagulase Negative Staphylococcus (GC 4548): strain GC 4548; for MIC Coagulase Negative Staphylococcus (GC 4549): strain GC 4549; for MIC Coagulase Negative Staphylococcus (GC 4551): strain GC 4551; for MIC Coagulase Negative Staphylococcus (GC 6257): strain GC 6257
# Summary of the method: as §1
# [1] = tested on: Staphylococcus aureus-SMITH (GC 4543); assay: Acute lethal infection in mice (ED50); assay type: in vivo; conditions: female CD-1 mice, intraperitoneal challenge, intravenous dose 30 min. after infection, 7 day survival ratios
# Description: The therapeutic effects of glycopeptide antibiotics of Formula I are determined against acute lethal infections with S. aureus (strain Smith), a penicillin resistant strain of S. pneumoniae (strain GC 1894), and a vancomycin resistant strain of E. fecalis (strain GC 6189 and GC 2246). Female mice, CD-1 (Charles River Laboratories), 20 +1-2 gm, are challenged by intraperitoneal injection of sufficient bacteria (suspended in Trypticase Soy Broth or hog gastric mucin) to kill non-treated controls within 24-48 hr. Antibacterial agents, contained in 0.2 mL of saline or 5% dextrose solution, are administered intravenously 30 min. after infection. Five mice are treated at each dose level. The 7 day survival ratios from 3 separate tests are pooled for calculation of median effective dose (ED50).
# [2] = broth dilution, 18 hours at 35° C.
smiles,measurement,setting,value
COc1ccc(CC2OCC3OC(OC4C(CO)OC(Oc5ccc(CC6NC(=O)C(C(C)c7ccccc7)NC(=O)CNC(=O)C(CO)NC(=O)C(C(O)C7CNC(=N)N7C7OC(CO)C(O)C(O)C7O)NC(=O)C(C(O)C7CNC(=N)N7)NC6=O)cc5)C(O)C4O)C(O)C(O)C3O2)cc1 (stereo not shown) [Example 103],MIC Streptococcus agalactiae (GC 4564),Streptococcus sp.,0.5 µg/mL
same,MIC Streptococcus pneumoniae (GC 1894),Streptococcus sp.,0.12 µg/mL
same,MIC Streptococcus pneumoniae (GC 4565),Streptococcus sp.,0.12 µg/mL
same,MIC Streptococcus pneumonine (ATCC 6301),Streptococcus sp.,0.12 µg/mL
same,MIC Streptococcus pyogenes (GC 4563),Streptococcus sp.,0.25 µg/mL
same,MIC Enterococccus avium (GC 4558),Enterococcus sp.,8 µg/mL
same,MIC Enterococccus faecalis (ATCC 29212),Enterococcus sp.,4 µg/mL
same,MIC Enterococccus faecalis (GC 2691),Enterococcus sp.,8 µg/mL
same,MIC Enterococccus faecalis (GC 3059),Enterococcus sp.,8 µg/mL
same,MIC Enterococccus faecalis (GC 4552),Enterococcus sp.,8 µg/mL
same,MIC Enterococccus faecalis (GC 4553),Enterococcus sp.,8 µg/mL
same,MIC Enterococccus faecalis (GC 4554),Enterococcus sp.,8 µg/mL
same,MIC Enterococccus faecalis (GC 6189),Enterococcus sp.,4 µg/mL
same,MIC Enterococccus faecium (GC 2243),Enterococcus sp.,4 µg/mL
same,MIC Enterococccus faecium (GC 4556),Enterococcus sp.,4 µg/mL
same,MIC Enterococccus faecium (GC 4557),Enterococcus sp.,2 µg/mL
same,MIC Enterococcus faecalis (GC 2242),Enterococcus sp.,4 µg/mL
same,MIC Escherichia coli (ATCC 25922),Escherichia coli,64 µg/mL
same,MIC Escherichia coli (GC 4559),Escherichia coli,64 µg/mL
same,MIC Escherichia coli (GC 4560),Escherichia coli,1 µg/mL
same,MIC Staphylococcus aureus (ATCC 29213),Staphylococcus sp.; strain ATCC 29213,2 µg/mL
same,MIC Staphylococcus aureus (GC 1131),Staphylococcus sp.; strain GC 1131,2 µg/mL
same,MIC Staphylococcus aureus (GC 3051),Staphylococcus sp.; strain GC 3051,1 µg/mL
same,MIC Staphylococcus aureus (GC 3053),Staphylococcus sp.; strain GC 3053,2 µg/mL
same,MIC Staphylococcus aureus (GC 4541),Staphylococcus sp.; strain GC 4541,2 µg/mL
same,MIC Staphylococcus aureus (GC 4542),Staphylococcus sp.; strain GC 4542,2 µg/mL
same,MIC Staphylococcus aureus-SMITH (GC 4543),Staphylococcus sp.; 18 hours at 35° C.,1 µg/mL
same,MIC Staphylococcus aureus-SMITH (GC 4543),Staphylococcus sp.; [2],1 µg/mL
same,MIC Staphylococcus aureus (GC 4544),Staphylococcus sp.; strain GC 4544,2 µg/mL
same,MIC Staphylococcus aureus (GC 4545),Staphylococcus sp.; strain GC 4545,1 µg/mL
same,MIC Staphylococcus haemolyticus (GC 4546),Staphylococcus sp.,1 µg/mL
same,MIC Staphylococcus haemolyticus (GC 4546),Staphylococcus sp.; [2],1 µg/mL
same,MIC Coagulase Negative Staphylococcus (GC 4547),Staphylococcus sp.,2 µg/mL
same,MIC Coagulase Negative Staphylococcus (GC 4547),Staphylococcus sp.; [2],2 µg/mL
same,MIC Coagulase Negative Staphylococcus (GC 4548),Staphylococcus sp.,1 µg/mL
same,MIC Coagulase Negative Staphylococcus (GC 4548),Staphylococcus sp.; [2],1 µg/mL
same,MIC Coagulase Negative Staphylococcus (GC 4549),Staphylococcus sp.,1 µg/mL
same,MIC Coagulase Negative Staphylococcus (GC 4549),Staphylococcus sp.; [2],1 µg/mL
same,MIC Coagulase Negative Staphylococcus (GC 4551),Staphylococcus sp.,2 µg/mL
same,MIC Coagulase Negative Staphylococcus (GC 4551),Staphylococcus sp.; [2],2 µg/mL
same,MIC Coagulase Negative Staphylococcus (GC 6257),Staphylococcus sp.,1 µg/mL
same,MIC Coagulase Negative Staphylococcus (GC 6257),Staphylococcus sp.; [2],1 µg/mL
same,"median effective dose (ED50), Staphylococcus aureus-SMITH (GC 4543)",[1],0.28 mg/kg
